Measured values published in publication PMC4534154 (Food Science & Nutrition, 2015).
“Also recorded” adds a separate entry of the source. Where a SMILES comes first, the peptide text is derived from it.

How the values were obtained:
[1] = tested on: Pepsin from porcine gastric mucosa; assay: Simulated gastric fluid (SGF) containing pepsin; conditions: 37°C, up to 16 h
[2] = tested on: trypsin from bovine pancreas; assay: simulated intestinal fluid (SIF) containing trypsin; conditions: 37°C, up to 16 h
[3] = molecular target: T1, trypsin (Bos taurus, UniProt P00760); assay: Simulated intestinal fluid (SIF, trypsin only) digestion of Ara h 1 peptides; type: in vitro ADME, bovine; conditions: SIF containing only trypsin, 200 μg peptide in 1 mL, 37°C, samples at 1, 2, 4, 16 h, LC-MS peak integration; for peptide cleaved at the K287 site in SIF (formation of 2227.05 amu ion as percentage of sum of parental and fragment ions): Fig. 2C; for SIF (trypsin) cleavage, formation of 1073.55 amu cleavage ion, in words: Fig. 2D
T1 construct: purchased Sigma; host or cells: bovine pancreas (tissue-derived)
T1 sequence (P00760 24-246): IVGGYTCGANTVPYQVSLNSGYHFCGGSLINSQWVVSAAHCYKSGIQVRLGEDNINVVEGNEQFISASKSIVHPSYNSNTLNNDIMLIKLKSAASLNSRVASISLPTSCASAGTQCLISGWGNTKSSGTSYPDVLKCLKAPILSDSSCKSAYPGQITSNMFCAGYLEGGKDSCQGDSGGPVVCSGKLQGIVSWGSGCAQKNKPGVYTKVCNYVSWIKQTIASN
Description: Pepsin from porcine gastric mucosa and trypsin from bovine pancreas were purchased from Sigma. Sequencing grade-modified trypsin was purchased from Promega. Water was obtained using a Synergy Ultrapure water system (Millipore). Modified and unmodified Ara h 1 peptides were synthesized (at least 95% pure) and purchased from New England Peptide. Serum samples from five peanut allergic patients were purchased from PlasmaLab International (Everett, WA).
Simulated gastric fluid (SGF) containing pepsin and simulated intestinal fluid (SIF) containing trypsin were used as described previously (Mattison et al. [2014b]). Synthetic peptides were resuspended in water just prior to use at a concentration of 1 mg/mL. Peptides (200 μg) were digested with SGF or SIF in 1 mL reaction volume for 1, 2, 4, or 16 h at 37°C. Samples (100 μL) were removed at the indicated time points, 5% formic acid was added, and samples were frozen at −80°C prior to analysis by mass spectrometry.
Analysis of trypsin/pepsin digestions: trypsin or pepsin digested Ara h 1 peptides were analyzed via liquid chromatography with tandem mass spectrometry (LC/MS/MS), using an Agilent 1200 LC system, an Agilent Chip Cube interface, and an Agilent 6520 Q-TOF tandem mass spectrometer (Agilent Technologies, Santa Clara, CA) as described in Mattison et al. (Mattison et al. [2014a]). One microliter sample aliquots were transferred to an enrichment column via capillary pump operating at a flow of 4 μL/min. The Nano pump was operated at a flow rate of 600 nL/min. An initial gradient (Solvent A-100% H2O, 0.1% Formic Acid; Solvent B- 90% ACN, 10% H2O and 0.1% Formic Acid) of 97% A was changed to 10% […] at 2 min, 70% at 15 min, 100% at 20 min, and back to 97% at 25 min. A postrun time of 5 min was employed for column equilibration. An initial MS scan was performed from m/z 300 to 1600 and up to six multiply charged ions were selected for MS/MS analysis. The raw MS/MS data files were extracted, sequenced, and searched against a custom database containing the Ara h 1 sequence using Spectrum Mill software (Agilent Technologies, Santa Clara, CA). For relative quantification, samples were run in MS-only mode and chromatographic peak areas were integrated into selected ions representative of the peptide cleavage products, resulting from the protease digest.
We evaluated the digestion of the modified and unmodified peptides using SIF containing only trypsin to mimic intestinal digestion conditions. […] To quantify the results, we integrated the relative peak areas of the 2227.05 and 1073.55 amu ions and undigested parental ions, and plotted the generation of the peptide cleavage products as a percentage of the sum of the parental and fragment ion values over time (Fig.2C and D). […]

Compound: VAK-CML-ISMPVNTPGQFEDFFPASSR
- fragment found [1]: VAKISM, major; also recorded: VAKISMPVNTPGQF, major
- not cleaved [2]: less than 5% of the CML-modified VAK peptide was cleaved (16 h)

Compound: VAKISMPVNTPGQFEDFFPASSR [VAK-CML, synthetic Ara h 1 peptide, residues 285–307, with CML modification at lysine 287 (K287)]
- peptide cleaved at the K287 site in SIF (formation of 2227.05 amu ion as percentage of sum of parental and fragment ions) ([3]; listed as CML-modified VAK): less than 5%

Compound: IFLAGDKDNVIDQIEK
- fragment found [1]: IFLAGDKDNVIDQ, major; also recorded: AGDKDNVIDQ, major; also recorded: IFLAGDKD, major
- cleaved bond [2]: K547-D548

Compound: VAKISMPVNTPGQFEDFFPASSR
- fragment found [1]: VAKISMPVNTPGQF, major; also recorded: VAKISM, major
- cleaved bond [2]: K287-I288

Compound: VAKISMPVNTPGQFEDFFPASSR [synthetic Ara h 1 peptide, residues 285–307, unmodified]
- peptide cleaved at the K287 site in SIF (formation of 2227.05 amu ion as percentage of sum of parental and fragment ions) [3]: about 50%

Compound: IFLAGDK-CML-DNVIDQIEK
- fragment found [1]: IFLAGDKDNVIDQ, major; also recorded: AGDKDNVIDQ, major; also recorded: IFLAGDKD, major
- not cleaved [2]: the CML modification prevented trypsin cleavage of the peptide

Compound: CC[C@H](C)[C@H](N)C(=O)N[C@@H](Cc1ccccc1)C(=O)N[C@@H](CC(C)C)C(=O)N[C@@H](C)C(=O)NCC(=O)N[C@@H](CC(=O)O)C(=O)N[C@@H](CCCCNCC(=O)O)C(=O)N[C@@H](CC(=O)O)C(=O)N[C@@H](CC(N)=O)C(=O)N[C@H](C(=O)N[C@H](C(=O)N[C@@H](CC(=O)O)C(=O)N[C@@H](CCC(N)=O)C(=O)N[C@H](C(=O)N[C@@H](CCC(=O)O)C(=O)N[C@@H](CCCCN)C(=O)O)[C@@H](C)CC)[C@@H](C)CC)C(C)C [IFLAG-CML]
- SIF (trypsin) cleavage, formation of 1073.55 amu cleavage ion, in words [3]: prevented trypsin cleavage

Compound: CC[C@H](C)[C@H](N)C(=O)N[C@@H](Cc1ccccc1)C(=O)N[C@@H](CC(C)C)C(=O)N[C@@H](C)C(=O)NCC(=O)N[C@@H](CC(=O)O)C(=O)N[C@@H](CCCCN)C(=O)N[C@@H](CC(=O)O)C(=O)N[C@@H](CC(N)=O)C(=O)N[C@H](C(=O)N[C@H](C(=O)N[C@@H](CC(=O)O)C(=O)N[C@@H](CCC(N)=O)C(=O)N[C@H](C(=O)N[C@@H](CCC(=O)O)C(=O)N[C@@H](CCCCN)C(=O)O)[C@@H](C)CC)[C@@H](C)CC)C(C)C [IFLAG] (H-IFLAGDKDNVIDQIEK-OH)
- SIF (trypsin) cleavage, formation of 1073.55 amu cleavage ion, in words [3]: very limited SIF proteolysis
